Results: the OPERA property sets (Mansouri et al. 2018)
≈ marks a conversion by molar mass, not a printed value.

Conditions: for solubility: 25 °C

NS(=O)(=O)c1ccc(S(=O)(=O)CCCO)c(F)c1
logP: -0.41 | solubility: 22.2 mM (≈ 6600 µg/mL)

NS(=O)(=O)c1ccc(SCCCO)cc1
logP: 0.8 | solubility: 5.66 mM (≈ 1400 µg/mL)

CC(C)(O)CCSc1ccc(S(N)(=O)=O)cc1
logP: 1.4 | solubility: 1.45 mM (≈ 400 µg/mL)

NS(=O)(=O)c1ccc(SCCCO)c(F)c1
logP: 0.99 | solubility: 3.39 mM (≈ 900 µg/mL)

Nc1cc(S(N)(=O)=O)ccc1S(=O)(=O)CCO
logP: -0.6

NS(=O)(=O)c1ccc(SCCO)c(F)c1
logP: 0.72 | solubility: 23.9 mM (≈ 6000 µg/mL)

NS(=O)(=O)c1ccc(SCCO)c([N+](=O)[O-])c1
logP: 0.38 | solubility: 1.8 mM (≈ 500 µg/mL)

NS(=O)(=O)c1ccc(SCCCCO)cc1
logP: 0.93 | solubility: 3.06 mM (≈ 800 µg/mL)

CC(=O)OCCCCCc1ccc(S(N)(=O)=O)cc1
logP: 1.86

NS(=O)(=O)c1ccc(S(=O)(=O)CCCO)cc1
logP: -0.64 | solubility: 25.8 mM (≈ 7200 µg/mL)

NS(=O)(=O)c1ccc(SCCCO)c([N+](=O)[O-])c1
logP: 0.96 | solubility: 0.342 mM (≈ 100 µg/mL)

NS(=O)(=O)c1ccc(S(=O)(=O)CCCO)s1
logP: -0.36

NS(=O)(=O)c1ccc(SCCCCCO)cc1
logP: 1.04 | solubility: 2.18 mM (≈ 600 µg/mL)

CC(=O)OCCCc1ccc(S(N)(=O)=O)cc1
logP: 0.98

NS(=O)(=O)c1ccc(S(=O)(=O)CCCCO)cc1
solubility: 7.16 mM (≈ 2100 µg/mL)

COCC(=O)OCCCS(=O)(=O)c1ccc(S(N)(=O)=O)s1
logP: -0.14

CC(C)CNCCS(=O)(=O)c1ccc(S(N)(=O)=O)cc1
logP: 0.23

NS(=O)(=O)c1ccc(S(=O)(=O)CCCCO)s1
logP: -0.34

NS(=O)(=O)c1ccc(SCCCCO)s1
logP: 0.95 | solubility: 34.8 mM (≈ 9300 µg/mL)

COC(=O)c1cc(S(N)(=O)=O)ccc1S(=O)(=O)CCO
logP: -0.47

CC(=O)OCCS(=O)(=O)c1ccc(S(N)(=O)=O)s1
logP: 0.11

NS(=O)(=O)c1ccc(CCCCCO)cc1
logP: 1.04 | solubility: 10.7 mM (≈ 2600 µg/mL)

NS(=O)(=O)c1ccc(CCCO)cc1
logP: 0.17 | solubility: 92.9 mM (≈ 20000 µg/mL)

Nc1cc(S(N)(=O)=O)ccc1S(=O)(=O)CCCO
logP: -0.48

NS(=O)(=O)c1ccc(SCCCCO)c(F)c1
logP: 1.28 | solubility: 3.58 mM (≈ 1000 µg/mL)

NS(=O)(=O)c1ccc(S(=O)(=O)CCO)c(F)c1
logP: -0.6 | solubility: 11.6 mM (≈ 3300 µg/mL)

NS(=O)(=O)c1ccc(SCCO)cc1
logP: 0.36 | solubility: 15 mM (≈ 3500 µg/mL)

COC(=O)c1cc(S(N)(=O)=O)ccc1S(=O)(=O)CCCO
logP: -0.3

CC(=O)OCCCS(=O)(=O)c1ccc(S(N)(=O)=O)s1
logP: 0.17

COC(=O)c1cc(S(N)(=O)=O)ccc1SCCCO
logP: 0.74

NS(=O)(=O)c1ccc(SCCCO)c(Cl)c1
logP: 1.59

NS(=O)(=O)c1ccc(S(=O)(=O)CCCCO)c(F)c1
logP: -0.26

CC(C)(O)CCS(=O)(=O)c1ccc(S(N)(=O)=O)cc1
logP: -0.09 | solubility: 11.4 mM (≈ 3500 µg/mL)

NS(=O)(=O)c1ccc(SCCCO)s1
logP: 0.85

NS(=O)(=O)c1ccc(CCCCO)cc1
logP: 0.57 | solubility: 64.1 mM (≈ 14700 µg/mL)

NS(=O)(=O)c1ccc(S(=O)(=O)CCO)cc1
logP: -0.85 | solubility: 24.9 mM (≈ 6600 µg/mL)
